Data set [1] addresses T1, Polypeptide N-acetylgalactosaminyltransferase 2 (Homo sapiens, UniProt Q10471). Kind of data set: Binding affinity of human recombinant FLAG-tagged ppGalNAcT2 expressed in HEK293 cells assessed as dissociation constant by SPR analysis.
Data set [2] addresses T1, Polypeptide N-acetylgalactosaminyltransferase 2. Put plainly: Binding affinity of human recombinant FLAG-tagged ppGalNAcT2 expressed in HEK293 cells assessed as association rate by SPR analysis. Background: Surface plasmon resonance follows binding to a sensor surface in real time, without labels.
Data set [3] concerns the target T2, Polypeptide N-acetylgalactosaminyltransferase 3 (Homo sapiens, UniProt Q14435).
T2 sequence (Q14435 whole entry): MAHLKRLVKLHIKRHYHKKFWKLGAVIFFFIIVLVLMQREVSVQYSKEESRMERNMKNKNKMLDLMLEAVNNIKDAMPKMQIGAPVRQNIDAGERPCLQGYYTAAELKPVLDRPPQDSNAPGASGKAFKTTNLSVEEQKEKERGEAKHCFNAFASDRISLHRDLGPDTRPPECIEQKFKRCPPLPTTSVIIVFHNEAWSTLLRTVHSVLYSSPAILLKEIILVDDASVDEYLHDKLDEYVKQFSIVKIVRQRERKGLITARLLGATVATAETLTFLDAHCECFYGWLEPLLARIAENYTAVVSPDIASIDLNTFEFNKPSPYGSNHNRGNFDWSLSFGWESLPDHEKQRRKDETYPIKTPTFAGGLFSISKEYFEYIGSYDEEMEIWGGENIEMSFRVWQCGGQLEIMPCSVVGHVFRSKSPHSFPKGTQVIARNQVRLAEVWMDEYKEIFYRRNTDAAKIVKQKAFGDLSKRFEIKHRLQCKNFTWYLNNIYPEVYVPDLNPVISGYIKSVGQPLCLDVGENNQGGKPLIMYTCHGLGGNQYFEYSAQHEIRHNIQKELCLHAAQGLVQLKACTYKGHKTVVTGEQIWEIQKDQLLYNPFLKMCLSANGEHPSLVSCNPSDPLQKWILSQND
Kind of data set: Inhibition of catalytic activity of ppGalNAcT3 (unknown origin) using EA2 peptide as substrate incubated for 30 mins by HPLC-based enzyme assay.

In data set [4] the target is T3, Polypeptide N-acetylgalactosaminyltransferase 6 (Homo sapiens, UniProt Q8NCL4).
T3 sequence (Q8NCL4 whole entry): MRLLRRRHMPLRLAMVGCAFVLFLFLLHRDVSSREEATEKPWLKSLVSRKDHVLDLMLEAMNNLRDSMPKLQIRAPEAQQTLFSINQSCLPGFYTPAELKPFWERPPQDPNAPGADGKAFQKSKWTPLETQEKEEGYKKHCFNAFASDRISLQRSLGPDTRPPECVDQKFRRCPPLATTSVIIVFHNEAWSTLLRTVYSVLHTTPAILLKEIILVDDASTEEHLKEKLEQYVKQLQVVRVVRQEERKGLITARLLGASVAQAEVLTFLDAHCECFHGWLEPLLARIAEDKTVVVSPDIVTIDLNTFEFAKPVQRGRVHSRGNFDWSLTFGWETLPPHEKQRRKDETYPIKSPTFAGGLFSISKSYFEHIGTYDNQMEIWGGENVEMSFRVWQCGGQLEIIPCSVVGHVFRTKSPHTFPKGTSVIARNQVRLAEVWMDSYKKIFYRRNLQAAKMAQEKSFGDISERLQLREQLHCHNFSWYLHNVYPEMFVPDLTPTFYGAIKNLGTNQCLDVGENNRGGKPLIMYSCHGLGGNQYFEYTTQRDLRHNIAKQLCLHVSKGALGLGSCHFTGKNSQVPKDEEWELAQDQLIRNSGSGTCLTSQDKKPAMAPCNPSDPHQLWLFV
Kind of data set: Inhibition of catalytic activity of ppGalNAcT6 (unknown origin) using EA2 peptide as substrate incubated for 30 mins by HPLC-based enzyme assay.

Data set [5] has as its target T4, Polypeptide N-acetylgalactosaminyltransferase 10 (Homo sapiens, UniProt Q86SR1).
T4 sequence (Q86SR1 whole entry): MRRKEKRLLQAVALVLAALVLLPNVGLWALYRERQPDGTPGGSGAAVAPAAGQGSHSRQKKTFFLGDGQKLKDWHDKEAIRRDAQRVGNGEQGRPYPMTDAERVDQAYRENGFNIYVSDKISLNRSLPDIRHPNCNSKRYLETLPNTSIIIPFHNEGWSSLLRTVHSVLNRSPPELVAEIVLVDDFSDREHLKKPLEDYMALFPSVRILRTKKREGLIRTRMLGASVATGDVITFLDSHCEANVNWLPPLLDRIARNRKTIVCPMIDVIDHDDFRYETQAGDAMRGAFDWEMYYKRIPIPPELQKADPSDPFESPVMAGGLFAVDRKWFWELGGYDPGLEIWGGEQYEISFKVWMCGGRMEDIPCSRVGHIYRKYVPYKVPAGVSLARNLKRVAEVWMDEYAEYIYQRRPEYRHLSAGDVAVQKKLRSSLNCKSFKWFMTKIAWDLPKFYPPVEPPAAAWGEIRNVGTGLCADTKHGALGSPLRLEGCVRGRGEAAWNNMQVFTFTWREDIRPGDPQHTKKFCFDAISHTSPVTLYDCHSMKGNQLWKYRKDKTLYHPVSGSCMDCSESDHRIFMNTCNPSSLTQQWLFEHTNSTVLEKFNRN
Put plainly: Inhibition of catalytic activity of ppGalNAcT10 (unknown origin) using EA2 peptide as substrate incubated for 30 mins by HPLC-based enzyme assay.

Data set [6] has as its target T1, Polypeptide N-acetylgalactosaminyltransferase 2. Kind of data set: Inhibition of catalytic activity of human recombinant FLAG-tagged ppGalNAcT2 using Muc2 peptide as substrate incubated for 30 mins by HPLC-based enzyme assay.
Data set [7] shares this target. Put plainly: Inhibition of catalytic activity of human recombinant FLAG-tagged ppGalNAcT2 using Muc5AC peptide as substrate incubated for 30 mins by HPLC-based enzyme assay.
For data set [8] the target is unchanged. Kind of data set: Inhibition of catalytic activity of human recombinant FLAG-tagged ppGalNAcT2 using Muc7 peptide as substrate incubated for 30 mins by HPLC-based enzyme assay.
For data set [9] the target is unchanged. Put plainly: Inhibition of ppGalNAcT2 in human HT-29 cells assessed as reduction in O-GalNAc glycans by measuring PNA lectin signal on cell surface at 40 uM incubated for 48 hrs by DAPI staining based immunofluorescence method.
Data set [10] has the same target. Kind of data set: Inhibition of ppGalNAcT2 in human HT-29 cells assessed as reduction in O-GalNAc glycans by measuring PNA lectin expression at 20 to 60 uM incubated for 48 hrs by Western blot analysis. Format: cell-based. (In general: A western blot detects proteins with antibodies after separation by electrophoresis.)
Data set [11] deals with HT-29. Put plainly: Effect on ppGalNAcT4 expression level in human HT-29 cells at 40 uM incubated for 48 hrs by Q-PCR analysis. The format is ADME, cell-based. As to conditions: ht-29, 48 h.
Data set [12] deals with T1, Polypeptide N-acetylgalactosaminyltransferase 2. Kind of data set: Inhibition of ppGalNAcT2 in human SW480 cells assessed as reduction in O-GalNAc glycosylation by measuring VVA lectin expression at 40 uM incubated for 48 hrs by Western blot analysis. The format is cell-based.
The next data set has as its system SW480. Kind of data set: Antimigratory activity in human SW480 cells at 40 uM incubated for 48 hrs by crystal violet staining based method. The format is functional, cell-based.
For a further data set, the system named is HCT-116. Kind of data set: Anti-invasive activity in human HCT116 cells at 40 uM incubated for 48 hrs by crystal violet staining based method. Format: functional, cell-based.
Data set [13] deals with HT-29. Kind of data set: Effect on ppGalNAcT4 expression level in human HT-29 cells at 40 uM incubated for 48 hrs by Western blot analysis. Format: ADME, cell-based. The following applies: ht-29, 48 h.

The values below come from ChEMBL document CHEMBL4385620, “Inhibition of polypeptide N-acetyl-α-galactosaminyltransferases is an underlying mechanism of dietary polyphenols preventing colorectal tumorigenesis” (Bioorg Med Chem, 2019).

The source made the active and inactive calls. The calls are words filed in the database; no cut-off is given here.

T1 sequence (Q10471 whole entry): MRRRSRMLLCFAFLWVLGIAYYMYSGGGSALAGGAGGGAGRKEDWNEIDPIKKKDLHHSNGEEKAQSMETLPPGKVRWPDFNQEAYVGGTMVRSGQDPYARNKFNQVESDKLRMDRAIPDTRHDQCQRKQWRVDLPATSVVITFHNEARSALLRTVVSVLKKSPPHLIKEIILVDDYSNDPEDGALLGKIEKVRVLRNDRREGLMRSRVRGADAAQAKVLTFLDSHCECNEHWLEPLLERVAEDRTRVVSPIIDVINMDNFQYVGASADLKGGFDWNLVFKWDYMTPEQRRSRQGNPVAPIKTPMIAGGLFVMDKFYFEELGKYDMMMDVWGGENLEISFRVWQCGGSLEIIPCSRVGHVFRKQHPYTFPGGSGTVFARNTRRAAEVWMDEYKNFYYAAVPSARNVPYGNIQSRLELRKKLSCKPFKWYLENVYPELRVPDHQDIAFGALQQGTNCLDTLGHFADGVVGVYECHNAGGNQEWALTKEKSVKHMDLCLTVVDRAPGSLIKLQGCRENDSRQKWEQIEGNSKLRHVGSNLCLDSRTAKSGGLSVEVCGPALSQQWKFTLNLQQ

Broadly, the Kd is the concentration at which binding is half-saturated. In general, kon refers to the rate constant with which the complex forms. As a reminder, the IC50 is the point on the concentration scale where inhibition reaches its midpoint. Take `O=c1oc2c(O)c(O)ccc2c2cc(O)c(O)cc12`: in data set [1], the dissociation constant (Kd) stood at 0.294 µM. Further, the kon in data set [2] turned out to be 3532 M⁻¹ s⁻¹. In addition, the IC50 in data set [3] was determined as 1.61 µM; in data set [4], 1.83 µM; in data set [5], 0.33 µM; in data set [6], 1.14 µM; in data set [7], 2.07 µM; in data set [8], 1.25 µM. Further, the inhibition result in data set [9], in [10] and in [12] was “Active” throughout. Further, the Activity result in the data set with HT-29 [11] and in the data set on HT-29 [13] was “Non-Toxic” each time. Besides, the outcome with SW480 and in the data set on HCT-116 was Active.
